Test results reported in patent US5432179A, “Piperazine derivatives and pharmaceuticals containing the same” (Zeria Pharmaceutical Co., Ltd., priority 1991, dated 1995).
Blank lines part the entries; values can stand above or below the compound they belong to.

What was measured:
[1] = tested on: passive cutaneous anaphylaxis (PCA); assay: Antiallergic effects: passive cutaneous anaphylaxis (PCA), inhibition of leaked color amount; format: in vivo, male SD rat; settings: rat PCA; oral, 10 mg/4 ml/kg one hour before the administration of antigen
Experimental: The back of a male SD rat (150-250 g in weight) was shaved in advance. Physiological saline and 0.1 ml of anti DNP-AS (Dinitrophenyl conjugated Ascaris) IgE serum which had been diluted to a suitable concentration with physiological saline were intradermally injected there. Fourty-eight hours after sensitization, the animals were challenged with 1 ml of 0.5% Evans blue physiological saline containing 2.5 mg/ml of DNP-BSA (dinitrophenyl conjugated bovine serum albumin) via the tail vein. Thirty minutes later, they were sacrificed under exsanguination and the dorsal skin was removed and the exuded dye was measured according to the method proposed by Harada et al. [Allergy, 15, 1-7(1966)]. The leaked color amount caused by the passive cutaneous anaphylaxis (PCA) was determined by subtracting the leaked color amount of the site to which physiological saline was administered from that of the PCA site. Each test compound was suspended in 5% gum arabic or 0.5% methylcellulose and the-resulting suspension was orally administered at the rate of 10 mg/4 ml/kg one hour before the administration of antigen. The efficacy of the test compound was evaluated by an ihibition rate (antiallergic effects) of the leaked color amount.

[2] = tested on: contraction reaction of the isolated ileum caused by histamine; assay: Antihistamic effects: inhibition of histamine-induced contraction of isolated guinea pig ileum (Magnus bath); format: cell-based, Hartley male guinea pig; settings: Cavia porcellus, histamine 3×10^-7 mole, test compound for 3 minutes before histamine, 30° C., read-out: antihistamic action (50% inhibition concentration: IC50 value)
Experimental: From a Hartley male guinea pig (300-600 g in weight), the ileum was isolated. The ileum was attached to a holder under a vesting tension of 0.5 g in a Magnus bath (30° C., under aeration) filled with 10 ml of the Tyrode solution. As a contraction reaction of the isolated ileum caused by histamine (3×10^-7 mole), an isometrical change in muscular tension was measured. The ileum was treated with the test compound for 3 minutes before the addition of histamine to study its effects and then its antihistamic action (50% inhibition concentration: IC50 value) was determined.
Incidentally, the IC50 value of Cetirizine (the compound disclosed in Japanese Patent Laid-Open No. 149282/1982) was determined as a control. Its IC value was 2.40 μM.

Compound: O=C(Nc1nnn[nH]1)c1ccccc1OCCCN1CCN(C(c2ccccc2)c2ccccc2)CC1 [Example 46, 2-[3-[4-(Diphenylmethyl)-1-piperazinyl]propoxy]-N-1H-tetrazol-5-yl-benzamid]
Antiallergic effects (inhibition rate of the leaked color amount) [1]: 59.8%

Compound: 2-[2-[4-[(4-Chlorophenyl)phenylmethyl]-1-piperazinyl]ethoxy]-1-tetrazol-5-ylmethyl [Example 69]
Antiallergic effects (inhibition rate of the leaked color amount) [1]: 81.0%

Compound: O=C(O)c1ccccc1OCCN1CCN(C(c2ccccc2)c2ccccc2)CC1 [Example 9, 2-[2-[4-(Diphenylmethyl]-1-piperazinyl]ethoxy]-benzoic acid]
Antiallergic effects (inhibition rate of the leaked color amount) [1]: 61.9%

Compound: O=C(Nc1nnn[nH]1)c1ccccc1OCCCN1CCN(C(c2ccccc2)c2ccc(Cl)cc2)CC1 (stereo not drawn) [Example 45, 2-[3-[4-[(4-Chlorophenyl)phenylmethyl]-1-piperazinyl]propoxy]-N-1H-tetrazol-5-yl-benzamide]
Antiallergic effects (inhibition rate of the leaked color amount) [1]: 72.4%

Compound: O=C(Nc1nnn[nH]1)c1ccccc1SCCN1CCN(C(c2ccccc2)c2ccc(Cl)cc2)CC1 (stereo not drawn) [Example 44, 2-[[2-[4-[(4-Chlorophenyl)phenylmethyl]-1-piperazinyl]ethyl]thio]-N-1H-tetrazol-5-yl-benzamide]
Antiallergic effects (inhibition rate of the leaked color amount) [1]: 54.7%

Compound: O=C(COCCN1CCN(C(c2ccccc2)c2ccc(Cl)cc2)CC1)Nc1nnn[nH]1 (stereo not drawn) [Example 50, 2-[2-[4-[(4-Chlorophenyl)phenylmethyl]-1-piperazinyl]ethoxy]-N-1H-tetrazol-5-yl-acetamide]
Antiallergic effects (inhibition rate of the leaked color amount) [1]: 60.4%

Compound: O=C(O)c1ccccc1OCCN1CCN(C(c2ccccc2)c2ccc(Cl)cc2)CC1 (stereo not drawn) [Example 5, 2-[2-[4-[(4-Chlorophenyl)phenylmethyl]-1-piperazinyl]ethoxy]benzoic acid]
Antiallergic effects (inhibition rate of the leaked color amount) [1]: 86.4%

IC50 [2]: 2.4 µM
Compound: O=C(O)COCCN1CCN(C(c2ccccc2)c2ccc(Cl)cc2)CC1 (stereo not drawn) [Cetirizine]

Compound: O=C(Nc1nnn[nH]1)c1ccccc1OCCN1CCN(C(c2ccccc2)c2ccc(Cl)cc2)CC1 (stereo not drawn) [Example 41, 2-[2-[4-[(4-Chlorophenyl)phenylmethyl]-1-piperazinyl]ethoxy]-N-1H-tetrazol-5-yl-benzamide]
Antiallergic effects (inhibition rate of the leaked color amount) [1]: 52.3%
